Reference: patent US5658897A, “Cyclopentane(ene) heptanoic or cyclopentane(ene) heptenoic acid, 2-hydrocarbyl phosphinyloxyalkyl or phosphonamidoalkyl as therapeutic agents” (Allergan, priority 1996, dated 1997)
Entries after “also recorded” stand apart in the source; their conditions may differ. Where two headings read alike, the source gives them in different places.

Experiments:
[1] = tested on: intraocular pressure in the dog; experiment: Dog intraocular pressure by applanation pneumatonometry; type: in vivo; conditions: 0.1%, 25 μl to ocular surface
Method: The effects of certain of the compounds of the working examples on intraocular pressure are also measured. The compounds of Examples 3 and 7 are prepared at 0.1% w/v concentration in a vehicle comprising 0.1% polysorbate 80 and 10 mM tris (hydroxy methyl) aminomethane hydrochloride (TRIS) base. Dogs are treated by administering 25 μl to the ocular surface, while the contralateral eye receives vehicle as a control. Intraocular pressure is measured by applanation pneumatonometry. Dog intraocular pressure is measured immediately before drug administration and at 2, 4, 6 and 24 hours thereafter. Each of the compounds tested lower intraocular pressure in the dog model.

EP3 = EP3 activity in isolated smooth muscle preparations; conditions: read-out: EC50 (nM) EP3
Method: (§1) Activity at different prostanoid receptors was measured in vitro in isolated smooth muscle preparations. FP-activity was measured as contraction of the isolated feline iris sphincter. EP4 -activity was measured as relaxation of smooth muscle of isolated rabbit jugular vein. TP-vasoconstrictor activity was measured as contraction of rings of the isolated rat thoracic aorta.

FP receptor = FP receptor (Felis catus, UniProt A0ABI7XJ69); experiment: FP activity, contraction of the isolated feline iris sphincter; conditions: read-out: EC50 (nM) FP
Method: as §1

TP = target: T1, TP (Rattus norvegicus, UniProt P34978)
T1 sequence (P34978 1-341): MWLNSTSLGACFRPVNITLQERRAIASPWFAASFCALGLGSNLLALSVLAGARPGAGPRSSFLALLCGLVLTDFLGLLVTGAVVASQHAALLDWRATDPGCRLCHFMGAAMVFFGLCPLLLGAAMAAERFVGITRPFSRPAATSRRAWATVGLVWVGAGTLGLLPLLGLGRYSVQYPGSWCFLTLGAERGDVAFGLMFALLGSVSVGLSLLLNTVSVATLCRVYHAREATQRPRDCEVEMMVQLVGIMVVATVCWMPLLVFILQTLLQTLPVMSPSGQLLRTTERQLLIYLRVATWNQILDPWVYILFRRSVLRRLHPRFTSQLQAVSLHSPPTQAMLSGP
Method: as §1

EP4 = EP4 (Oryctolagus cuniculus, UniProt Q28691); conditions: for IC25: read-out: IC25 EP4
Method: as §1

[2] = cited from earlier work; for ocular hypotensive activity: in vivo
EP1 = EP1 activity in isolated smooth muscle preparations; conditions: read-out: EC50 (nM) EP1
Method: Activity at different prostanoid receptors was measured in vitro in isolated smooth muscle preparations.

DP/EP2 = DP/EP2 activity in isolated smooth muscle preparations; conditions: read-out: EC50 (nM) DP/EP2
Method: as §1

ocular surface = conditions: cited from earlier work

Sequence of EP4 (Q28691 whole entry): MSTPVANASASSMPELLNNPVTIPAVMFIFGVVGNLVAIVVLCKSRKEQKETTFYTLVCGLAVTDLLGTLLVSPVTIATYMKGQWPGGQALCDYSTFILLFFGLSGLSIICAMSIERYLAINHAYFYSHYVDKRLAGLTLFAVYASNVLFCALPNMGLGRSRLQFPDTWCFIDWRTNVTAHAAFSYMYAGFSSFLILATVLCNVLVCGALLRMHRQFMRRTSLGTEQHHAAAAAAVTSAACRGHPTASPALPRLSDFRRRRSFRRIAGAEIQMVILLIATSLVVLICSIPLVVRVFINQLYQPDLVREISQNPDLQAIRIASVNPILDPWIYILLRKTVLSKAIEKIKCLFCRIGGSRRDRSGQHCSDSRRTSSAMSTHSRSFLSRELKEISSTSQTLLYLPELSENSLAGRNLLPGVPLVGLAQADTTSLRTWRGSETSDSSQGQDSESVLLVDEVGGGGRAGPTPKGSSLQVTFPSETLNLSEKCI
Sequence of FP receptor (A0ABI7XJ69 1-366): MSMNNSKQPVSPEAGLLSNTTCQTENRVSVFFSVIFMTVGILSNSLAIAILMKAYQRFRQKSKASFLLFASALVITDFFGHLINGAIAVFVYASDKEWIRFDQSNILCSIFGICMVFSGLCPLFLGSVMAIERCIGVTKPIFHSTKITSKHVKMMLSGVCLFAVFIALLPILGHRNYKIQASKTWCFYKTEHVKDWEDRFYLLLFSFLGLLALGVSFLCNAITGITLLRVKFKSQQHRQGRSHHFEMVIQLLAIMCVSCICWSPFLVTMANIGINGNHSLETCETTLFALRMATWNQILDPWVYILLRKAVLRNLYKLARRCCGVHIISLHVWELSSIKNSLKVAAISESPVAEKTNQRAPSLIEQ

Compound: COP(=O)(CCc1ccccc1)OC[C@@H]1[C@@H](C/C=C\CCCC(=O)O)[C@@H](O)C[C@H]1O (stereo partly drawn) [Example 3, 7-[3α,5α-Dihydroxy-2-β-[[methoxy(2-phenylethyl)phosphinyl]oxymethyl]cyclopentyl]-5Z-heptenoic acid]
- Decrease in IOP (mm Hg) at 2 HR [1]: -1.1 mm Hg
- Decrease in IOP (mm Hg) at 4 HR [1]: -2.9 mm Hg
- Decrease in IOP (mm Hg) at 6 HR [1]: -3.5 mm Hg
- Decrease in IOP (mm Hg) at 24 HR [1]: 0.4 mm Hg

Compound: COC(=O)CCC/C=C\C[C@@H]1[C@@H](CNP(=O)(CCc2ccccc2)OC)[C@H](O)C[C@@H]1O (some centres unmarked) [drawing 14]
- EC50 (EP3): > 10000 nM
- EC50 (FP receptor): 252 nM
- EC50 (TP): > 10 µM

Compound: COP(=O)(CCc1ccccc1)NC[C@@H]1[C@@H](C/C=C\CCCC(=O)O)[C@@H](O)C[C@H]1O (some centres unmarked)
- EC50 (FP receptor): 2140 nM
- FP/EP4 Ratio (EP4): 2.8
- IC25 (EP4): 0.767 µM

Compound: CCOP(=O)(CCc1ccccc1)OC[C@@H]1[C@@H](C/C=C\CCCC(=O)O)[C@@H](O)C[C@H]1O (some centres unmarked)
- EC50 (FP receptor): > 10000 nM
- FP/EP4 Ratio (EP4): > 0.15
- IC25 (EP4): 66.3 µM

Compound: CCCCC[C@H](O)/C=C/[C@H]1[C@H](O)CC(=O)[C@@H]1C/C=C\CCCC(=O)O [PGE2]
- ocular hypotensive activity [2]: possess ocular hypotensive activity; also recorded: highly effective ocular hypotensive agents

Compound: COP(=O)(CCc1ccccc1)OC[C@@H]1[C@@H](C/C=C\CCCC(=O)O)[C@@H](O)C[C@H]1O (some centres unmarked) [drawing 10]
- EC50 (EP1): 10000 nM
- EC50 (EP3): 575 nM
- EC50 (DP/EP2): > 10000 nM
- EC50 (FP receptor): 195 nM
- EC50 (TP): > 10 µM

Compound: O=C(O)CCC/C=C\C[C@@H]1[C@@H](COP(=O)(O)CCc2ccccc2)[C@H](O)C[C@@H]1O
- EC50 (FP receptor): > 10000 nM

Compound: CCCCC[C@@H](/C=C/[C@@H]1[C@@H](C/C=C\CCCC(=O)O)[C@@H](O)C[C@H]1OC(=O)C(C)(C)C)OC(=O)C(C)(C)C [11,15-dipivaloyl PGF2α]
- ocular hypotensive activity [2]: known to have ocular hypotensive activity

Compound: CCCCC[C@H](O)/C=C/[C@@H]1[C@@H](CCCCCCC(=O)O)[C@@H](O)C[C@H]1O [PGF1α]
- ocular hypotensive activity [2]: highly effective ocular hypotensive agents

Compound: CCCCC[C@H](O)/C=C/[C@@H]1[C@@H](C/C=C\CCCC(=O)OC(C)C)[C@@H](O)C[C@H]1O [isopropyl ester of PGF2α]
- hypotensive potency versus the parent compound PGF2α ([2]; attributed to more effective penetration through the cornea): significantly greater hypotensive potency than the parent compound
- ocular hypotensive activity [2]: the most potent ocular hypotensive agent ever reported
- ocular surface side effects (ocular surface; topical ocular use, humans): ocular surface (conjunctival) hyperemia and foreign-body sensation

Compound: CCCCC[C@H](O)/C=C/[C@@H]1[C@@H](C/C=C\CCCC(=O)O)[C@@H](O)C[C@H]1O [PGF2α]
- ocular surface side effects (ocular surface; in vivo): ocular surface (conjunctival) hyperemia and foreign-body sensation

Compound: COC(=O)CCC/C=C\C[C@@H]1[C@@H](COP(=O)(O)CCc2ccccc2)[C@H](O)C[C@@H]1O
- EC50 (EP3): > 10000 nM
- EC50 (DP/EP2): > 10000 nM
- EC50 (FP receptor): > 10000 nM
- FP/EP4 Ratio (EP4): > 27
- IC25 (EP4): 0.365 µM

Compound: COC(=O)CCC/C=C\C[C@@H]1[C@@H](CNP(=O)(CCc2ccccc2)OC)[C@H](O)C[C@@H]1O (some centres unmarked) [Example 7]
- Decrease in IOP (mm Hg) at 2 HR [1]: -3.3 mm Hg
- Decrease in IOP (mm Hg) at 4 HR [1]: -4.1 mm Hg
- Decrease in IOP (mm Hg) at 6 HR [1]: -5.1 mm Hg
- Decrease in IOP (mm Hg) at 24 HR [1]: -3.5 mm Hg
